US11505592B2, “Diagnosis and therapy of multiple sclerosis” (PRINDEX S.R.L., priority 2015, dated 2022)
Bridges are numbered along the chain shown (N, C = ends). Where no end group is shown, it is not given here. dibromoxylene = α,α'-dibromoxylene, used to cyclize the peptide by reaction with its two cysteines

What was measured:
MS sera = assay: PEPSCAN-based ELISA, binding of MS sera to library peptides; set-up: species or system human; conditions: ELISA binding value, MS sera n = 9
From the text: (§1) The linear and CLIPS peptides are synthesized based on the amino acid sequence of the target protein using standard Fmoc-chemistry and deprotected using […] with scavengers. The constrained peptides are synthesized on chemical scaffolds in order to reconstruct conformational epitopes, using Chemically Linked Peptides on Scaffolds (CLIPS) technology (Timmerman et al. (2007). For example, the single looped peptides are synthesized containing a dicysteine, which was cyclized by treating with alpha, alpha′-dibromoxylene and the size of the loop is varied by introducing cysteine residues at variable spacing. If other cysteines besides the newly introduced cysteines are present, they are replaced by alanine. The side-chains of the multiple cysteines in the peptides are coupled to CLIPS templates by reacting onto credit-card format polypropylene PEPSCAN cards (455 peptide formats/card) with a 0.5 mM solution of CLIPS template such as 1,3-bis (bromomethyl) benzene in ammonium bicarbonate (20 mM, pH 7.9)/acetonitrile (1:1(v/v)). The cards are gently shaken in the solution for 30 to 60 minutes while completely covered in solution. Finally, the cards are washed extensively with excess of H2O and sonicated in distrupt-buffer containing 1 percent SDS/0.1 percent beta-mercaptoethanol in PBS (pH 7.2) at 70° C. for 30 minutes, followed by sonication in H2O for another 45 minutes.
(§2) The binding of antibody to each peptide is tested in a PEPSCAN-based ELISA. The 455-well credit card format polypropylene cards containing the covalently linked peptides are incubated with primary antibody solution for example consisting of 1/1000 diluted serum in blocking solution, for example 4% horse serum, 5% ovalbumin (w/v) in PBS/1% Tween. After washing, the peptides are incubated with a 1/1000 dilution of antibody peroxidase conjugate for one hour at 25° C. After washing, the peroxidase substrate 2,2′-azino-di-3-ethylbenzthiazoline sulfonate (ABTS) and 2 microlitres of 3 percent H2O2 are added. After one hour, the color development are measured. The color development are quantified with a charge coupled device (CCD)-camera and an image processing system (Slootstra et al., 1996).
(§3) The raw data are optical values obtained by a CCD-camera calibrated to export absorption values compatible with a standard 96-well plate ELISA-reader. First the CCD-camera makes a picture of the card before peroxidase coloring and then again a picture after the peroxidase coloring. These two pictures are substracted from each other yielding a binding value for each peptide.
(§4) All peptides have been synthesized in a peptide array format and the binding of 20 different sera to all peptide libraries were measured in an ELISA based set up following the procedure described in detail in the method section “Peptide synthesis and screening assays”. In particular 2 sets of experiments were performed on the 2 libraries by using 2 different dilutions of the human patients sera. In the first set of experiment the 20 sera were used at 1:2500 dilutions, while in the second experiment the dilution of the sera was 1:1000. The binding of the different sera to all peptides was quantified and analyzed in detail (Tables 1 and 2, FIGS. 15A, B, C, D and […]

CTRL sera = assay: PEPSCAN-based ELISA, binding of control (CTRL) sera to library peptides; set-up: species or system human; conditions: ELISA binding value, CTRLs n = 10
From the text: as §1, §2, §3, §4

Sequence	MEAN MS (MS sera; NOX2 library)	MEAN CTRL (CTRL sera; NOX2 library)	MEAN MS (MS sera; 5HT2A receptor library)	MEAN CTRL (CTRL sera; 5HT2A receptor library)
CAVHNITVSEQKISEWCQNESYLNFARKRIKNC [SEQ ID NO: 126]	685.667	370.15	–	–
CAVHNITVSEQKISEWCSYLNFARKRIKNPEGC [SEQ ID NO: 133]	648.556	375.55	–	–
CAVHNITVSEQKISEWCVSEQKISEWGKIKESC [SEQ ID NO: 123]	697.000	392.5	–	–
CDSKVFKEGSSLLACKESSNEDVIGALLC [Peptide 16]	–	–	604.03	347.50
CDSKVFKEGSSLLACMDILSEENTSLSSC [Peptide 28]	–	–	429.00	236.60
CDSKVFKEGSSLLACSENRTNLSSEGSLC [Peptide 46]	–	–	512.94	296.70
CDSKVFKEGSSLLACSGEANTSDAFNWTC [Peptide 37]	–	–	623.06	333.75
CENTSLSSTTNSLMCMDILSEENTSLSSC [Peptide 17]	–	–	316.22	175.00
CERIVRGQTAESLAVHCQNESYLNFARKRIKNC [SEQ ID NO: 75]	833.444	455.55	–	–
CESLAVHNITVSEQKICGDRQNESYLNFARKRC [SEQ ID NO: 136]	730.278	409.15	–	–
CESLAVHNITVSEQKICQNESYLNFARKRIKNC [SEQ ID NO: 74]	689.556	354.9	–	–
CESLAVHNITVSEQKICSYLNFARKRIKNPEGC [SEQ ID NO: 79]	639.611	357.1	–	–
CEWSVNARVNNSDPYSCPYSVALSELGDRQNEC [SEQ ID NO: 72]	428.167	225.5	–	–
CEWSVNARVNNSDPYSCQNESYLNFARKRIKNC [SEQ ID NO: 103]	714.944	372.8	–	–
CEWSVNARVNNSDPYSCVSEQKISEWGKIKESC [SEQ ID NO: 155]	760.083	433.775	–	–
CFNVEWSVNARVNNSDCGDRQNESYLNFARKRC [SEQ ID NO: 129]	792.889	423.15	–	–
CFNVEWSVNARVNNSDCVSEQKISEWGKIKESC [SEQ ID NO: 141]	784.944	447.325	–	–
CFNWTVDSENRTNLCMDILSEENTSLSSC [Peptide 30]	–	–	312.00	174.90
CGDRQNESYLNFARKRCGDRQNESYLNFARKRC [SEQ ID NO: 85]	775.500	404.05	–	–
CGDRQNESYLNFARKRCQNESYLNFARKRIKNC [SEQ ID NO: 70]	831.278	412.7	–	–
CGDRQNESYLNFARKRCSYLNFARKRIKNPEGC [SEQ ID NO: 131]	730.222	401.95	–	–
CGDRQNESYLNFARKRCVSEQKISEWGKIKESC [SEQ ID NO: 152]	805.278	461.6	–	–
CHGAERIVRGQTAESLCNFARKRIKNPEGGLYC [SEQ ID NO: 89]	733.889	404.6	–	–
CHGAERIVRGQTAESLCQKISEWGKIKESPIPC [SEQ ID NO: 101]	734.917	407.625	–	–

Sequence	MEAN MS (MS sera; NOX2 library)	MEAN CTRL (CTRL sera; NOX2 library)	MEAN MS (MS sera; 5HT2A receptor library)	MEAN CTRL (CTRL sera; 5HT2A receptor library)
CHGAERIVRGQTAESLCQNESYLNFARKRIKNC [SEQ ID NO: 73]	748.111	407.2	–	–
CHGAERIVRGQTAESLCSYLNFARKRIKNPEGC [SEQ ID NO: 82]	755.722	417.5	–	–
CITVSEQKISEAAKIKC (linker 1-17 via dibromoxylene (inferred)) [SEQ ID NO: 147]	703.000	383.25	–	–
CKISEWGKIKC [SEQ ID NO: 108]	672.833	367.95	–	–
CLGDRQNESYLAAARKC [SEQ ID NO: 145]	698.944	402.85	–	–
CLNFARKRIKC [SEQ ID NO: 87]	713.333	374.7	–	–
CLNFARKRIKNAAGGLC [SEQ ID NO: 92]	691.444	367	–	–
CLQDDSKVFKEGSSCKESSNEDVIGALLC [Peptide 48]	–	–	632.28	373.15
CLQDDSKVFKEGSSCMDILSEENTSLSSC [Peptide 7]	–	–	434.67	233.80
CLSEENTSLSSTTNCMDILSEENTSLSSC [Peptide 39]	–	–	303.50	184.40
CLSPSSLSLLHLQECMDILSEENTSLSSC [Peptide 10]	–	–	305.00	183.45
CLSPSSLSLLHLQECTVDSENRTNLSSEC [Peptide 27]	–	–	427.89	263.00
CLSSEGSLSPSSLSCMDILSEENTSLSSC [Peptide 26]	–	–	320.72	188.85
CLTILYGYRWPAASKLC [Peptide 41]	–	–	782.33	449.80
CLTILYGYRWPLPSCKESSNEDVIGALLC [Peptide 12]	–	–	629.14	350.93
CLTILYGYRWPLPSCLYGYRWPLPSKLSC [Peptide 40]	–	–	879.72	508.45
CLTILYGYRWPLPSCMDILSEENTSLSSC [Peptide 2]	–	–	421.56	228.85
CLTILYGYRWPLPSKLC [Peptide 35]	–	–	792.94	475.00
CLYGYRWPLPSKLSCKESSNEDVIGALLC [Peptide 20]	–	–	689.03	390.93
CLYGYRWPLPSKLSCMDILSEENTSLSSC [Peptide 4]	–	–	449.78	246.80
CLYGYRWPLPSKLSCSDAFNWTVDSENRC [Peptide 36]	–	–	511.11	298.55
CLYGYRWPLPSKLSCSGEANTSDAFNWTC [Peptide 43]	–	–	649.67	344.80
CLYGYRWPLPSKLSCYSNDFNSGEANTSC [Peptide 32]	–	–	555.67	288.50
